Experimental data published in publication PMC6918900, “Concentration-Dependent Activity of Hydromethylthionine on Cognitive Decline and Brain Atrophy in Mild to Moderate Alzheimer’s Disease” (Journal of Alzheimer's Disease, 2019).
“And” between values parts separate entries of the source, which are not always exact repeats. Equal values may be shown once. Read-outs that look alike come from different tables or passages of the source.

What was measured:
[1] = Estimated steady state brain concentration of LMT; parameters: species or system human; settings: corresponding to 0.3–0.8 ng/ml in plasma
[2] = test system: tau transgenic mouse models; settings: dose of 9 mg/kg/day; cited from earlier work
[3] = mice; cited from earlier work
[4] = elderly humans; cited from earlier work
[5] = test system: tangle filaments isolated from AD brain tissues; parameters: method as in PMID 25759392, PMID 8855335; settings: at a similar molar ratio (tau:LMT 1 : 0.1); cited from earlier work
[6] = test system: electron transfer chain; parameters: method as in PMID 17928358, PMID 22419586; settings: supplementary electron carrier in the electron transfer chain; cited from earlier work
[7] = test system: autophagy; parameters: method as in PMID 26572258, PMID 22361619; settings: cited from earlier work
[8] = earlier Phase II study; cited from earlier work

## CN(C)c1ccc2c(c1)Sc1cc(N(C)C)ccc1N2 [LMT, leuco-methylthioninium]
[1]
  estimated steady state concentration in the brain: 6–16 ng/ml and 0.021–0.056 μM
[2]
  effect on tau aggregation pathology and behavioral deficits: reduces tau aggregation pathology and associated behavioral deficits
[3]
  half-life: 4 h
[4]
  half-life: 37 h

## CN(C)c1ccc2nc3ccc(=[N+](C)C)cc-3sc2c1 [MT moiety, methylthioninium]
[5]
  effect on proteolytic stability of tangle filaments: reverse the proteolytic stability of tangle filaments
[6]
  concentrations enhancing mitochondrial activity: 10 to 100 nM
[7]
  concentration range enhancing autophagy: 10 to 20 nM

## CN(C)c1ccc2nc3ccc(=[N+](C)C)cc-3sc2c1 [MTC, methylthioninium chloride]
[8]
  minimum effective dose: 138 mg/day
